The text below walks through data of US7049313B2, “ATM inhibitors” (Kudos Pharmaceuticals Ltd., priority 2002, dated 2006).

“Also recorded” adds a separate entry of the source.

Usually IC50 stands for the point on the concentration scale where inhibition reaches its midpoint.

The subject of data set [1] is HeLa cells. Description: Clonogenic survival assay, sensitisation to ionising radiation. Type of data set: cell-based, human. The protocol:
(§1) Sensitisation of Cells to Ionising Radiation or DNA Double Strand Break Chemotherapies
(§2) The HeLa line was used for ionising radiation studies while LoVo was used for studies with chemotherapeutic agents. […] After 1 hour, a concentration range of either etoposide (FIG. 2), camptothecin (FIG. 3) or doxorubicin (FIG. 4) was added. […] For all treatments, after a further 16 hours incubation, drug containing media was removed and fresh media added prior to a further incubation of 10 days before the staining of colonies with Giemsa. All compounds were solubilised in DMSO, with a final concentration on cells of no more than 0.1%. Resulting colonies containing >50 cells were counted as positives.

Data set [2] relates to LoVo cells. Description: Clonogenic survival assay, sensitisation to DNA double strand break chemotherapeutics. The conditions noted are these: 10 μM of compound. The format is cell-based, human. The protocol:
as §1, §2

Data set [3] has as its system HIV-1. Description: HIV-1 based luciferase assay (LUCIA) on Jurkat T-cells. The format is cell-based. The settings on record: FIG. 5.
Data set [4] has as its system HIV-1. Description: HIV-1 based LUCIA, all other cell lines tested. The settings on record: Human immunodeficiency virus 1. The source says: Retroviral Transductions (LUCIA).
In data set [5] the target is T1, HIV-1 RT (Human immunodeficiency virus type 1 group M subtype B, UniProt P04585).
T1 construct: chemilluminescent HIV-1 reverse transcriptase assays
Description: Chemilluminescent HIV-1 reverse transcriptase assay. The format is biochemical. The conditions noted are these: FIG. 6. An excerpt:
Control RT inhibition using nevirapine (□) is also shown.

The test system of data set [6] is HIV-1 HXB2 wild type. Nature of the data set: HIV-1 4-day replication assay, wild type strain (p24 antigen ELISA). The format is cell-based. The procedure:
(§3) HIV-1 4-day Replication Assays
(§4) C8166 T-cells were washed and infected with HIV-1 (strains HXB2wt and HXB2AZTres, RT amino acid changes 67N, 70R, 215F, 219Q) at low multiplicity of infection for one hour at room temperature. The cells were then washed and distributed (5×10^4 cells/well) in triplicate into the wells of 96-well cell culture plates containing different concentrations of inhibitors. The plates were then incubated at 37° C. for 4 days. The cell-free culture fluid was then harvested and assayed for levels of p24 viral antigen using a commercially available ELISA kit (Murex), according to the manufacturers' instructions. Cytotoxicity was evaluated by distributing (5×10^4 cells/well) uninfected C8166 T-cells into triplicate wells of 96-well cell culture plates containing different concentrations of inhibitor and incubating the plates at 37° C. After 4 days, 25 μl of XTT, which is metabolised by viable but not dead cells was added and the plates incubated for a further 3 hours at 37° C. Finally, the absorbance was read at a wavelength of 450 nm.

The subject of data set [7] is HIV-1 HXB2 AZT resistant. Nature of the data set: microbe, parasite or virus in culture. The format is cell-based. The protocol: as §3, §4
The nature of data set [8]: Cytotoxicity on uninfected C8166 T-cells (XTT dye reduction). Type of data set: cell-based. The conditions noted are these: human, uninfected C8166 T-cells, read-out: 50% cytotoxic concentration (CC50). The procedure:
as §4
Background: Tetrazolium dyes change colour on reduction, which living cells bring about.

For data set [9], the system named is C8166 T-cells. Described as above. Type of data set: cell-based. The settings on record: 4 days, XTT, FIG. 8C. The procedure: as §4

With `O=c1cc(-c2cccc3c2Sc2ccccc2S3)oc(N2CCOCC2)c1` [Compound 4, 2-Thianthren-1-yl-6-morpholin-4-yl-pyran-4-one], the “sensitisation of cells to ionising radiation (% survival)” value in data set [1] (HeLa cells, compound at 0.5 μM and 2 μM, FIG. 1) is given as “can sensitise cells to ionising radiation”. The “sensitising tumour derived cell lines to DNA double strand break inducing agents” value in data set [1] (summary of FIGS. 1–4 (HeLa and LoVo)) was “significant effect on sensitising tumour derived cell lines to DNA double strand break inducing agents”. Also, in [2] (FIG. 2), the “sensitisation of cells to etoposide (% survival)” value is on record as “can sensitise cells to etopside”. Also, the “sensitisation of cells to camptothecin (% survival)” value in [2] (FIG. 3) is “can sensitise cells to camptothecin”. In addition, the “sensitisation of cells to doxorubicin (% survival)” value in [2] (FIG. 4) is “can sensitise cells to doxorubicin”. The IC50 was approximately 1000 nM in data set [3] (Human immunodeficiency virus 1, Jurkat, read-out: IC50 in HIV-1 based LUCIA, Jurkat T-cells); 1000 to 10000 nM in data set [4]; 0.1 µM in data set [6] (Human immunodeficiency virus 1, HXB2, 96 h, C8166 T-cells, 4-day replication, p24); 0.06 µM in data set [7] (Human immunodeficiency virus 1, HXB2, C8166, 96 h, read-out: HIV-1 HXB2 (IC50 μM) AZT resistant). Further, the “inhibition of retroviral vector transduction (LUCIA)” value in [3] (Jurkat T-cells) was “can inhibit recombinant retroviral vector infections; also recorded: efficiently inhibit HIV-1 LUCIA at low micromolar concentrations”. Also, the “inhibition of HIV-1 RT” value in data set [5] is listed as “does not inhibit HIV-1 RT”. For the same compound, in data set [6] (4-day replication assays, FIG. 8), the “inhibition of HIV-1 replication” value is listed as “inhibits HIV-1 replication”. Also, the “inhibition of HIV-1 replication, wild-type versus AZT resistant strain” value in data set [7] (4-day replication assays, FIG. 8A, 8B) is “inhibits HIV-1 replication equally well in both wild-type and AZT resistant HIV-1 strains; also recorded: inhibited HIV-1 replication equally well”. The CC50 at 4 days in data set [8] is more than 20000 nM. For the same compound, the “cytotoxicity (percentage of viable cells)” value in data set [9] is “No significant cytotoxicity; also recorded: no significant cytotoxic effects”.
